Measurements published in the Kinase Knowledgebase extract (Sharma et al. 2016).

Columns and labels:
PIK3CA = PIK3CA (UniProt P42336); assay: Inhibition of PIK3CA Kinase Activity
[1] = biological target: PIK3CA, P42336 [Wild Type]; assay: Inhibition of PIK3CA (Wild Type) Kinase Activity
Sequence of PIK3CA, P42336 [Wild Type] (P42336 whole entry, looked up): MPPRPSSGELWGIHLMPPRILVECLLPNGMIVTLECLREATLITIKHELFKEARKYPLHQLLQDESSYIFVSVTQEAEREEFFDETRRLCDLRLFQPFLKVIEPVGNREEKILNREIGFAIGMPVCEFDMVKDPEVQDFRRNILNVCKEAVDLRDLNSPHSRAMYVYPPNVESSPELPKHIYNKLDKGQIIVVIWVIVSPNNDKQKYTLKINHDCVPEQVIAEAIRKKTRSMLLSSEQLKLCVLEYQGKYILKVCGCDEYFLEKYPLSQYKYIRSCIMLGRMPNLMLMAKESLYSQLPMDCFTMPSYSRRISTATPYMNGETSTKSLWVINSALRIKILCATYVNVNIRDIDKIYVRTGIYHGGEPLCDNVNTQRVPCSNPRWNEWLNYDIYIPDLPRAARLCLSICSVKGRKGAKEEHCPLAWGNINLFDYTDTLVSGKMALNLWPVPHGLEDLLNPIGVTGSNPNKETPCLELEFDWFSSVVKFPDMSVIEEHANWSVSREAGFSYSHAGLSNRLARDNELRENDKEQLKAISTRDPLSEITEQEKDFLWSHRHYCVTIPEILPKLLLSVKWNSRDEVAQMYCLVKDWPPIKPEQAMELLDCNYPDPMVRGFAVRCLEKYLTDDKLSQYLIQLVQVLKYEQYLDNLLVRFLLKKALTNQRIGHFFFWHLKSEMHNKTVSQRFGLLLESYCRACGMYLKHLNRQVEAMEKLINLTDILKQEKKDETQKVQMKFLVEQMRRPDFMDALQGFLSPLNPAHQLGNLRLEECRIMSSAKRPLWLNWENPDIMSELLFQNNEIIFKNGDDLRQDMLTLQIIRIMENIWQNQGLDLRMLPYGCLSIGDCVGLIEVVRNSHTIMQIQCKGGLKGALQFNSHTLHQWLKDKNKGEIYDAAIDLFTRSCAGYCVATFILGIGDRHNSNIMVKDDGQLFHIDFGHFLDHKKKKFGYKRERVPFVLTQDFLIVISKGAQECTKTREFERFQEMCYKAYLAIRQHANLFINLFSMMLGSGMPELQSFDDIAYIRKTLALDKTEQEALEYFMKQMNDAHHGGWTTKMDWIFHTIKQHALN

Sequence of PIK3CA (P42336 whole entry, looked up): as above

SMILES | IC50 (PIK3CA) | IC50 [1]
O=c1c(-c2ccccc2)c(N2CCOCC2)oc2ccccc12 | > 200 µM | > 200 µM
CCCCc1c(N2CCOCC2)oc2ccccc2c1=O | 48 µM | 25 µM
CC(C)c1c(N2CCOCC2)oc2ccccc2c1=O | > 200 µM | 51 µM
O=c1c(Cc2ccccc2)c(N2CCOCC2)oc2ccccc12 | > 200 µM | > 200 µM
CCCc1c(N2CCOCC2)oc2ccccc2c1=O | 68 µM | 31 µM
CCc1c(N2CCOCC2)oc2ccccc2c1=O | 4.4 µM | 28 µM
Cc1c(N2CCOCC2)oc2ccccc2c1=O | 40 µM | 33 µM
O=c1cc(N2CCOCC2)oc2ccccc12 | 15 µM | 2.6 µM
